Source: PubChem BioAssay AID330 (DTP/NCI, 2004)
Values joined by “and” are separate entries in the source; they are usually repeats but may differ in a detail not shown here. Equal values may be shown once. Toxic doses and inconclusive results are not listed. Rule for the calls: active = survival T/C of 150% or more; inactive = T/C below 125% in these data.

System: P388 leukemia ip, CD2F1 mice, survival T/C
Experiment: NCI In Vivo Anticancer Drug Screen. Data for tumor model P388 Leukemia (intraperitoneal) in CD2F1 (CDF1) mice
Conditions: endpoint: median survival time, higher = longer survival
Method in brief: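 Mice carrying the transplanted tumor received test compound or vehicle. Survival was recorded in each group, and the value is the treated-group measurement divided by that of the vehicle-treated control group.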

[1] = dose: 50.0 mg/kg/injection, schedule: Q01DX009 (ip), vehicle: saline with Tween-80
[2] = dose: 100.0 mg/kg/injection, schedule: Q01DX009 (ip), vehicle: saline with Tween-80
[3] = dose: 12.5 mg/kg/injection, schedule: Q01DX009 (ip), vehicle: saline with Tween-80
[4] = dose: 25.0 mg/kg/injection, schedule: Q01DX009 (ip), vehicle: saline with Tween-80
[5] = dose: 50.0 mg/kg/injection, schedule: Q01DX005 (ip), vehicle: saline with Tween-80
[6] = dose: 100.0 mg/kg/injection, schedule: Q01DX005 (ip), vehicle: saline with Tween-80
[7] = dose: 200.0 mg/kg/injection, schedule: Q01DX005 (ip), vehicle: saline with Tween-80

Measured: T/C

CN(C)C=O
inactive: dose: 12.5 mg/kg/injection, schedule: Q01DX009 (ip), vehicle: saline 103 % of control and 111 % of control | dose: 25.0 mg/kg/injection, schedule: Q01DX009 (ip), vehicle: saline 103 % of control and 107 % of control | dose: 50.0 mg/kg/injection, schedule: Q01DX009 (ip), vehicle: saline 107 % of control (2×) and 111 % of control | dose: 100.0 mg/kg/injection, schedule: Q01DX009 (ip), vehicle: saline 109 % of control and 115 % of control and 116 % of control | dose: 800.0 mg/kg/injection, schedule: Q01DX009 (ip), vehicle: saline 120 % of control | dose: 1600.0 mg/kg/injection, schedule: Q01DX009 (ip), vehicle: saline 118 % of control | dose: 2.0 % in 0.5 ml injection vol, schedule: Q01DX009 (ip), vehicle: water 107 % of control and 119 % of control | dose: 4.0 % in 0.5 ml injection vol, schedule: Q01DX009 (ip), vehicle: water 116 % of control and 119 % of control | dose: 8.0 % in 0.5 ml injection vol, schedule: Q01DX009 (ip), vehicle: water 119 % of control

C[N+](C)(C)/N=C(/c1ccccc1)C1CCCCC1
inactive: dose: 12.5 mg/kg/injection, schedule: Q01DX001 (ip), vehicle: Klucel (hydroxypropylcellulose) (HPC) 91 % of control | dose: 25.0 mg/kg/injection, schedule: Q01DX001 (ip), vehicle: Klucel (hydroxypropylcellulose) (HPC) 100 % of control | dose: 50.0 mg/kg/injection, schedule: Q01DX001 (ip), vehicle: Klucel (hydroxypropylcellulose) (HPC) 97 % of control

Clc1ccc(CC(Cn2ccnc2)c2ccccc2Cl)cc1 (stereo unspecified)
inactive: [1] 94 % of control | [2] 86 % of control

CC1(O)C(c2ccccc2)=C(c2ccccc2)C2(c3ccccc3)Oc3c(Cl)c(Cl)c(Cl)c(Cl)c3OC12c1ccccc1 (stereo unspecified)
inactive: [3] 94 % of control | [4] 94 % of control | [1] 90 % of control and 93 % of control

CC(C)(C)C(=O)CC(=O)C(C)(C)C.[Cu]
inactive: dose: 100.0 mg/kg/injection, schedule: Q04DX003 (ip), vehicle: saline with Tween-80 94 % of control | dose: 200.0 mg/kg/injection, schedule: Q04DX003 (ip), vehicle: saline with Tween-80 101 % of control

Cc1c(C=[N+]2CCCCC2)c2ccccc2n1C
inactive: dose: 6.25 mg/kg/injection, schedule: Q01DX009 (ip), vehicle: saline with Tween-80 100 % of control | [3] 109 % of control | [4] 109 % of control and 120 % of control | [1] 104 % of control and 118 % of control | [2] 103 % of control

Oc1cc2c(c3c(O)c4ccccc4c(O)c13)=NC1CCCCC1N=2 (stereo unspecified)
inactive: dose: 25.0 mg/kg/injection, schedule: Q01DX005 (ip), vehicle: Klucel (hydroxypropylcellulose) (HPC) 100 % of control | dose: 50.0 mg/kg/injection, schedule: Q01DX005 (ip), vehicle: Klucel (hydroxypropylcellulose) (HPC) 102 % of control | dose: 100.0 mg/kg/injection, schedule: Q01DX005 (ip), vehicle: Klucel (hydroxypropylcellulose) (HPC) 103 % of control | dose: 200.0 mg/kg/injection, schedule: Q01DX005 (ip), vehicle: Klucel (hydroxypropylcellulose) (HPC) 93 % of control

CC(C)N(C(=O)c1ncccc1C(=O)c1ccccn1)C(C)C
inactive: [5] 105 % of control | [6] 94 % of control | [7] 94 % of control

CCCC(C(=O)OC)C(=O)C(C)c1nc2n(c1O)C(=N)N=N2 (stereo unspecified)
inactive: dose: 50.0 mg/kg/injection, schedule: Q01DX005 (ip), vehicle: saline 97 % of control | dose: 100.0 mg/kg/injection, schedule: Q01DX005 (ip), vehicle: saline 97 % of control | dose: 200.0 mg/kg/injection, schedule: Q01DX005 (ip), vehicle: saline 98 % of control

CC(C)CC(NC(c1ccccc1)(c1ccccc1)c1ccccc1)C(=O)O (stereo unspecified)
inactive: dose: 60.0 mg/kg/injection, schedule: Q01DX005 (ip), vehicle: Klucel (hydroxypropylcellulose) (HPC) 103 % of control | dose: 120.0 mg/kg/injection, schedule: Q01DX005 (ip), vehicle: Klucel (hydroxypropylcellulose) (HPC) 106 % of control

Cn1ccnc1[Si](C)(C)C
inactive: dose: 60.0 mg/kg/injection, schedule: Q01DX005 (ip), vehicle: saline with Tween-80 101 % of control | dose: 120.0 mg/kg/injection, schedule: Q01DX005 (ip), vehicle: saline with Tween-80 107 % of control | dose: 240.0 mg/kg/injection, schedule: Q01DX005 (ip), vehicle: saline with Tween-80 99 % of control

Cc1cc(=O)oc2cc(OC(=O)N(C)C)ccc12
inactive: dose: 100.0 mg/kg/injection, schedule: Q04DX003 (ip), vehicle: saline 115 % of control | dose: 200.0 mg/kg/injection, schedule: Q04DX003 (ip), vehicle: saline 112 % of control | dose: 400.0 mg/kg/injection, schedule: Q04DX003 (ip), vehicle: saline 97 % of control

CCc1nc(-c2ccccc2)nc2c1nc(-c1ccccc1)n2Nc1ccccc1
inactive: [5] 90 % of control | [6] 96 % of control | [7] 91 % of control

CC(=O)N1CN2CN(C1)CN(C(C)=O)C2
inactive: dose: 100.0 mg/kg/injection, schedule: Q01DX001 (ip), vehicle: saline 105 % of control | dose: 200.0 mg/kg/injection, schedule: Q01DX001 (ip), vehicle: saline 104 % of control | dose: 400.0 mg/kg/injection, schedule: Q01DX001 (ip), vehicle: saline 107 % of control

NNC(=O)CCn1[nH]c(=O)c(Cl)c(Cl)c1=O
inactive: [5] 100 % of control | [6] 100 % of control | [7] 100 % of control
